Values after ≈ are worked out from the molar mass of the structure shown. Where two headings read alike, the source gives them in different places. Positions of bridges follow the written chain, without caps; N, C: chain ends. Non-standard residues stand in square brackets, D forms with d. Residues, ends and D or L forms follow the SMILES beside them. *: point of attachment. X1 = CC[C@H](C)CCCCC(=O)*; Dab = NCC[C@H](N)C(=O)O
How the values were obtained:
[1] = system: E. coli R3 core type (F653); type: cell-based, Escherichia coli; settings: Table 2; strain R3; MHB, 37°C, 18 h
Experimental: (§1) All strains used in this study are listed in Supplementary Table S1. E. coli strains WD101 and WD101ΔeptAΔarnD (WD101ΔΔ) were kindly provided by Professor M. Stephen Trent (University of Georgia, USA). E. coli strains DB wild type, DB L5, and DB L9 were kindly provided by Dr. Douglas Browning (University of Birmingham, UK). Single deletion strains for envelope mutants were obtained from the Keio-collection (Baba et al., [2006]). All strains were grown in non-cation adjusted Muller Hinton broth (MHB) (Sigma, Cat. No. 70192). BPP-PNA conjugates (Table 1) were obtained as described previously (Good et al., [2001]; Ghosal et al., [2013]; Hansen et al., [2016]).
(§2) Minimum inhibitory concentration (MIC) values were determined by broth microdilution according to standard protocols adapted to peptide-based antimicrobial compounds (Goltermann and Nielsen, [2020]). Briefly, 190 μl bacterial cell culture containing ≈10^5 cfu/ml was dispensed into a 96-well plate (Thermo Scientific, Nunc Cat. No. 260896, 96F straight w/lid) along with 10 μl PNA stock solution or antibiotic. The plate was incubated in a Tecan Genios plate reader at 37°C for 18 h, and OD was measured every 20 min at 595 nm. The MIC was determined as the lowest concentration, which inhibited visible growth (OD < 0.1) in the wells. […] Experiments were performed in triplicates as a minimum.

[2] = system: E. coli WD101ΔΔ; type: cell-based, Escherichia coli; settings: Table 2; strain WD101ΔΔ; MHB, 37°C, 18 h
Experimental: as §1, §2

[3] = system: E. coli WD101 (polymyxin-resistant pmrA^C); type: cell-based, Escherichia coli; settings: Table 2; strain WD101; MHB, 37°C, 18 h
Experimental: as §1, §2

[4] = system: E. coli R2 core type (F632); type: cell-based, Escherichia coli; settings: Table 2; strain R2; MHB, 37°C, 18 h
Experimental: as §1, §2

[5] = system: E. coli R4 core type (F2513); type: cell-based, Escherichia coli; settings: Table 2; strain R4; MHB, 37°C, 18 h
Experimental: as §1, §2

[6] = system: E. coli 123 ΔrfaG (ATCC25922 ΔrfaG); type: cell-based, Escherichia coli; settings: Table 2; strain 123 ΔrfaG; MHB, 37°C, 18 h
Experimental: as §1, §2

[7] = system: E. coli ATCC25922; type: cell-based, Escherichia coli; settings: strain ATCC25922, MHB, 37°C, 18 h; for MIC values: Table 3
Experimental: as §1, §2

[8] = system: E. coli 122 ΔrfaF (ATCC25922 ΔrfaF); type: cell-based, Escherichia coli; settings: Table 2; strain 122 ΔrfaF; MHB, 37°C, 18 h
Experimental: as §1, §2

[9] = system: E. coli R1 core type (F470); type: cell-based, Escherichia coli; settings: Table 2, strain R1* (48 h), MHB, 37°C
Experimental: as §1
as §2, with “The plate was incubated in a Tecan Genios plate reader at 37°C for 18 h, and OD was measured every 20 min at 595 nm.” left out

[10] = system: E. coli K12 MG1655; assay: microbe, parasite or virus in culture; type: cell-based, Escherichia coli; settings: 37°C, 18 h; for MIC values: Table 3, strain MG1655
Experimental: as §1, §2

[11] = system: E. coli inner core mutants (ΔrfaC, ΔrfaE, ΔrfaF, and ΔrfaG); assay: MIC broth microdilution, inner core mutants as a group; type: cell-based, Escherichia coli; settings: all the inner core mutants as well as AS19
Experimental: as §2
Four inner core mutants (ΔrfaC, ΔrfaE, ΔrfaF, and ΔrfaG) with increasingly shortened LPS core (Figure 2A) were investigated. The deletions span the three heptosyl and glycosyltransferases rfaC, rfaF, and rfaG responsible for attaching heptose and glucose, respectively, to the growing LPS core, and rfaE required for the synthesis of the heptose precursor needed for LPS synthesis (Figure 2A). […] Furthermore, all strains were characterized with respect to hydrophobicity and accessible cell surface charge (Figure 2B, vide infra). […] It is known that the peptide portion of the conjugates can have a membrane disruptive effect at high concentrations (Eriksson et al., [2002]). […]

[12] = system: E. coli AS19; assay: MIC broth microdilution; type: cell-based, Escherichia coli; settings: Table 2; strain AS19; MHB, 37°C, 18 h
Experimental: as §1, §2

[13] = system: E. coli 121 ΔrfaE (ATCC25922 ΔrfaE); assay: MIC broth microdilution; type: cell-based, Escherichia coli; settings: Table 2; strain 121 ΔrfaE; MHB, 37°C, 18 h
Experimental: as §1, §2

[14] = system: E. coli ATCC25922 ΔrfaC (120 ΔrfaC); assay: MIC broth microdilution; type: cell-based, Escherichia coli; settings: for MIC values: Table 3, strain ATCC25922 ΔrfaC
Experimental: as §1, §2

[15] = system: E. coli MG1655 ΔsbmA; assay: MIC broth microdilution; type: cell-based, Escherichia coli; settings: Table 3; strain MG1655 ΔsbmA; MHB, 37°C, 18 h
Experimental: as §1, §2

[16] = HPLC analysis of BPP-PNA relative hydrophobicity; type: physicochemical; settings: chromatographic measure of hydrophobicity; RP18 column (150 ×3.9 mm DeltaPak, 5 μm); 0 to 40% buffer B (95% acetonitrile, 0.1% TFA) in 30 min; conjugates dissolved in water and mixed; recorded at 260 nm
Experimental: Hydrophobicity of the BPP-PNA conjugates was measured using reversed phase high-performance liquid chromatography (HPLC) on an RP18 column (150 ×3.9 mm DeltaPak, 5 μm; Waters Corporation, Milford, MA, USA). Briefly, all the BPP-PNA conjugates were dissolved in water and mixed. The mixture of BPP-PNA conjugates has been run on HPLC and recorded at 260 nm. The HPLC buffers used in this study are buffer A composed of 5% acetonitrile, 0.1% trifluoroacetic acid (TFA), and 95% H2O, and buffer B composed of 95% acetonitrile, 0.1% TFA, and 5% H2O; the gradient starts from 100% of buffer A, 0% of buffer B, and ends with 60% of buffer A, 40% of buffer B in 30 min. Hydrophobicity of the compound was directly correlated to the HPLC retention time of each conjugate.

[17] = Table 2, strain K12 MG1655, MHB

CC[C@H](C)CCCCC(=O)N[C@@H](CCN)C(=O)N[C@H](C(=O)N[C@@H](CCN)C(=O)N[C@H]1CCNC(=O)[C@H]([C@@H](C)O)NC(=O)[C@H](CCN)NC(=O)[C@H](CCN)NC(=O)[C@H](CC(C)C)NC(=O)[C@@H](CC(C)C)NC(=O)[C@H](CCN)NC1=O)[C@@H](C)O [Colistin] (X1-[Dab]T[Dab][Dab][Dab][dL]L[Dab][Dab]T; lactam 4-C (inferred); N-terminus assumed)
Minimum inhibitory concentration, Colistin [1]: 0.06 µg/mL (≈ 0.0513 µM)
Minimum inhibitory concentration, Colistin [2]: ≤ 0.016 µg/mL
Minimum inhibitory concentration, Colistin [3]: 4 µg/mL (≈ 3.42 µM)
Minimum inhibitory concentration, Colistin [4]: 0.03 µg/mL (≈ 0.0257 µM)
Minimum inhibitory concentration, Colistin [5]: 0.03 µg/mL (≈ 0.0257 µM)
Minimum inhibitory concentration, Colistin [6]: ≤ 0.016 µg/mL
Minimum inhibitory concentration, Colistin ([7]; Table 2): 0.06 µg/mL (≈ 0.0513 µM)
Minimum inhibitory concentration, Colistin [8]: 0.016 µg/mL (≈ 0.0137 µM)
Minimum inhibitory concentration, Colistin [9]: 0.016 µg/mL (≈ 0.0137 µM)
Minimum inhibitory concentration, Colistin [10, 17]: 0.03 µg/mL (≈ 0.0257 µM)

CCCCCCCCCCCCOS(=O)(=O)[O-].[Na+] [SDS, sodium dodecyl sulfate]
MIC, SDS [11]: < 0.03%
Minimum inhibitory concentration, SDS [12]: ≤ 0.03%
Minimum inhibitory concentration, SDS [13]: ≤ 0.03%
Minimum inhibitory concentration, SDS ([14]; Table 2, strain 120 ΔrfaC, MHB, 37°C, 18 h): ≤ 0.03%
Minimum inhibitory concentration, SDS [1]: >0.5%
Minimum inhibitory concentration, SDS [2]: 0.12%
Minimum inhibitory concentration, SDS [3]: 0.12%
Minimum inhibitory concentration, SDS [4]: >0.5%
Minimum inhibitory concentration, SDS [5]: ≤ 0.06%
Minimum inhibitory concentration, SDS [6]: ≤ 0.03%
Minimum inhibitory concentration, SDS ([7]; Table 2): 0.12%
Minimum inhibitory concentration, SDS [8]: ≤ 0.03%
Minimum inhibitory concentration, SDS [10, 17]: 0.12%

-Cys- RAGLQFPVGRVHRLLRK-NH2 (BF2A) [PNA4030, anti acpP PNA conjugated to buforin 2a (BF2A) via Cys]
MIC values [15]: 8 to 16 µM
MIC values ([14]; MHB, 37°C, 18 h): <0.25 µM
MIC values [7]: 0.5 µM
MIC values ([10]; MHB): 1 µM

-Cys-GKPRPYSPRPTSHPRPIRV-NH2 (Drosocin) [PNA4128, anti acpP PNA conjugated to drosocin via Cys]
MIC values [15]: 4 to 8 µM
MIC values ([14]; MHB, 37°C, 18 h, listed as 4128): <0.06 µM
fold lower MIC in the ΔrfaC-mutant than the ATCC25922 control ([14]; ΔrfaC-mutant vs ATCC25922): more than 16 fold
MIC values ([7]; listed as 4128): 1 µM
MIC values ([10]; MHB): 0.5 to 1 µM

-Cys-GKPRPYSPRPTSHPRPIRV-NH2 (Drosocin) [PNA4242, mm for PNA4128]
MIC values ([14]; MHB, 37°C, 18 h, listed as 4242): <1 µM
MIC values ([7]; listed as 4242): >8 µM

-Cys-GKPRPYSPRPTSHPRPIRV-R-X-R-NH2 [PNA4448, anti acpP PNA conjugated to drosocin extended by R-X-R]
MIC values [15]: 2 µM
MIC values ([14]; MHB, 37°C, 18 h): <0.12 µM
MIC values [7]: 2 µM
MIC values ([10]; MHB): 1 to 2 µM

-Cys-RAGLQFPVGRVHRLLRK-NH2 (BF2A) [PNA4243, mm for PNA4030]
MIC values ([14]; MHB, 37°C, 18 h): <2 µM
MIC values [7]: >8 µM

-Cys-RAGLQFPVGRVHRLLRK-R-X-R-NH2 (BF2A) [PNA4449, anti acpP PNA conjugated to BF2A extended by R-X-R]
MIC values [15]: >4 µM
MIC values ([14]; MHB, 37°C, 18 h): <0.25 µM
MIC values [7]: 1 µM
MIC values ([10]; MHB): <0.5 µM

-Cys-VDKPPYLPRPRPPRRIYNR-NH2 (oncocin) [PNA4124, anti acpP PNA conjugated to oncocin via Cys]
MIC values [15]: >8 µM
MIC values ([14]; MHB, 37°C, 18 h, listed as 4124): 0.25 µM
MIC values ([7]; listed as 4124): >2 µM
MIC values ([10]; MHB): 8 µM

-Cys-VDKPPYLPRPRPPRRIYNR-NH2 (oncocin) [PNA4700, mm for PNA4124]
MIC values ([14]; MHB, 37°C, 18 h, listed as 4700): 4 µM
MIC values ([7]; listed as 4700): >8 µM

H-CTCATACTCT-NH2 [PNA2301, unconjugated anti acpP PNA, H-…-NH2]
Minimum inhibitory concentration [12]: 2 µM
HPLC retention time (RT) [16]: 14 min
Minimum inhibitory concentration [1]: >16 µM
Minimum inhibitory concentration [5]: >16 µM
Minimum inhibitory concentration [6]: >16 µM
Minimum inhibitory concentration ([7]; Table 2): >16 µM
Minimum inhibitory concentration [8]: >4 µM
Minimum inhibitory concentration ([10]; Table 2, strain K12 MG1655, non-cation adjusted MHB, ≈10^5 cfu/ml, triplicates minimum): >32 µM

Source: PMC9251361, “Effects of LPS Composition in Escherichia coli on Antibacterial Activity and Bacterial Uptake of Antisense Peptide-PNA Conjugates” (Frontiers in Microbiology, 2022)
